What was measured:
[1] = system: WT strains; assay: Inhibition of TAG and starch accumulation by LOX inhibitor in WT strains under nitrogen starvation; format: cell-based, Chlamydomonas reinhardtii; conditions: in response to nitrogen starvation
[2] = system: std1 mutant; assay: Inhibition of TAG and starch accumulation by LOX inhibitor in std1 mutant under nitrogen starvation; format: cell-based, Chlamydomonas reinhardtii; conditions: 5 mM catechol, after 6-day under nitrogen starvation (FIG. 14)
Procedure: FIGS. 14A and 14B depict the inhibition of TAG and starch accumulation in the mutant by LOX inhibitors.
FIG. 14A depicts starch accumulation.
FIG. 14B depicts TAG accumulation.
The starch and chlorophyll contents were measured according to (Chochois et al., 2010). One mL of culture was harvested, centrifuged at ˜20,000 g for 10 min, resuspended in 1 mL of methyl alcohol for chlorophyll extraction and stored at −80° C. The pellets were dried, and 400 μL of water were added. To solubilize starch, the samples were autoclaved setting “dry cycle”. Subsequently, starch was degraded to glucose by adding 200 μL amyloglucosidase solution (1 U/mL, Roche) and incubation at 55° C. for 1-2 h. Using an automated sugar analyzer (Ysi model 2700 select, Yellow Springs, Ohio, USA), glucose concentration were determined. Chlorophyll was extracted by methanol, and chlorophyll a and b were determined by measuring the absorbance at 653, 666 and 750 nm using UV-VIS spectrophotometer (SAFAS UVmc2 with the software SP2000).
C. reinhardtii cells (eq. to 2 mm^3 total cellular volume) were harvested by centrifuge at 1000 g for 2 min (at 4° C.). The cells were either frozen right away under −80° C., or quenched in hot isopropanol for immediate lipid extractions. Total cellular lipids were extracted using a mixture of hexane and isopropanol (Li-Beisson et al., 2010). […]

Question: Which TAG accumulation [1] does the source give for Oc1ccccc1O [catechol] here?
Answer: Its TAG accumulation is “inhibited”.

Question: And the starch accumulation [1]?
Answer: The starch accumulation was “no effect”.

Question: What about the TAG accumulation [2] of the same molecule?
Answer: Its TAG accumulation is “inhibited”.

Question: What about the starch accumulation [2] of the same molecule?
Answer: The starch accumulation was “inhibited”.

From patent US10513680B2, “Green microalgae lacking a functional DYRKP-1 gene, for use for increased production of feedstock” (COMMISSARIAT A L'ENERGIE ATOMIQUE ET AUX ENERGIES …, priority 2014, dated 2019)
